In patent US4347319A, “Microbiological epoxidation process” (priority 1980, dated 1982):

Legend:
[1] = system: Methylobacter chroococcum CRL M6 NRRL B-11,214; experiment: Sec. alcohol oxidation by cell suspensions of methanol-grown cells; assay type: cell-based; details: sec. alcohol to methyl ketone
[2] = system: Methylobacter vinelandii CRL M5Y NRRL B-11,218; experiment: as above; assay type: cell-based; details: sec. alcohol to methyl ketone
[3] = system: Methylobacterium organophilum CRL 26 NRRL B-11,222; experiment: as above; assay type: cell-based; details: sec. alcohol to methyl ketone
[4] = system: Methylococcus capsulatus CRL 25 NRRL B-11,221; experiment: as above; assay type: cell-based; details: sec. alcohol to methyl ketone
[5] = system: Methylocystis parvus CRL 18 NRRL B-11,204; experiment: as above; assay type: cell-based; details: sec. alcohol to methyl ketone
[6] = system: Methylomonas methanica CRL M4P NRRL B-11,205; experiment: as above; assay type: cell-based; details: sec. alcohol to methyl ketone
[7] = system: Methylomonas streptobacterium CRL 17 PM3 NRRL B-11,208; experiment: as above; assay type: cell-based; details: sec. alcohol to methyl ketone
[8] = system: Methylosinus trichosporium CRL 15 NRRL B-11,202; experiment: as above; assay type: cell-based; details: sec. alcohol to methyl ketone
[9] = system: cell extract of Kloeckera sp. strain A2 NRRL-Y-11,420; experiment: Oxidation of secondary alcohols to methylketone by cell extracts of yeasts; assay type: biochemical
[10] = system: cell-free particulate fractions derived from the methylotrophic microorganisms; experiment: Inhibition of conversion of C3 -C6 n-alkanes to sec. alcohols; assay type: biochemical; details: oxygen and NADH present
Excerpt: The conditions for preparing the cell suspensions or the cell-free particulate fractions from methane-grown methylotroph microorganisms is the same as described above.

SMILES	Conversion Rates [1] [μmoles/hr/mg protein]	Conversion Rates [2] [μmoles/hr/mg protein]	Conversion Rates [3] [μmoles/hr/mg protein]	Conversion Rates [4] [μmoles/hr/mg protein]	Conversion Rates [5] [μmoles/hr/mg protein]	Conversion Rates [6] [μmoles/hr/mg protein]	Conversion Rates [7] [μmoles/hr/mg protein]	Conversion Rates [8] [μmoles/hr/mg protein]	specific activities ([9]; 2-butanol as a substrate, spectrophotometrically)	Conversion Rate ([9]; methanol-grown, cell extract + NAD^+, sec. alcohol to methyl ketone, gas chromatography) [μmoles/hr/mg Protein]	inhibition of conversion of n-alkanes to sec. alcohols [10]
CCC(C)O (centres unmarked) [2-Butanol]	1.4	2.0	2.5	0.95	1.0	2.5	2.0	4.5	90 nmoles NAD^+ reduced per min. per mg. protein	5.9	–
C=CC [Propylene]	–	–	–	–	–	–	–	–	–	–	inhibited
